Experimental data as given in patent publication US5128362A, “1-aminomethyl-1,2,3,4-tetrahydronaphthalenes” (Abbott Laboratories, priority 1990, dated 1992).
Counter-ions that a name gives are not always drawn. Like-named read-outs stand apart in the source and are kept apart here.

Key:
alpha 2 receptor [1] = molecular target: T1, alpha 2 receptor (Rattus norvegicus, UniProt P22909); experiment: Radioligand binding, [3H]rauwolscine, rat cerebral cortices
T1 construct: rat cerebral cortices; from tissue; host or cells: rat cerebral cortices
T1 sequence (P22909 1-465): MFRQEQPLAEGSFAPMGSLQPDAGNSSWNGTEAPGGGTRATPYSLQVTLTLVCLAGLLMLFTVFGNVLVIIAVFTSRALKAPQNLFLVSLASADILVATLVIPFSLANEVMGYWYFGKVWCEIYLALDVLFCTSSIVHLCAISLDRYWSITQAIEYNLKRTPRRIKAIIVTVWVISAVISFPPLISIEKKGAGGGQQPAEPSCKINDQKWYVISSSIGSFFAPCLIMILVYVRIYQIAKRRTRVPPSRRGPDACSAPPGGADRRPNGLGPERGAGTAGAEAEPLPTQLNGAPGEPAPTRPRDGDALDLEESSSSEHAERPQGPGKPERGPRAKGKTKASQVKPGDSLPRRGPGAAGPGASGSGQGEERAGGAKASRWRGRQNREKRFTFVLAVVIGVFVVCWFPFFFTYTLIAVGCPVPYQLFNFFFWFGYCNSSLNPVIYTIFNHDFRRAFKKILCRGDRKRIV
Protocol: (§1) The compounds were assessed for alpha-adrenergic receptor subtype selectivity by use of radioligand binding techniques as described previously (DeBernardis et. al. J. Med. Chem. 28, 1398 (1985)).

alpha 2 receptor [2] = experiment: as above; conditions: Ki alpha 1/Ki alpha-2
Protocol: as §1

| SMILES | Ki (alpha 2 receptor [1]; read-out: Ki alpha-2) [nM] | alpha-2 - Selectivity Ki alpha 1/Ki alpha-2 (alpha 2 receptor [2]) | Ki (alpha 2 receptor [1]) [nM] |
| --- | --- | --- | --- |
| COc1ccc2c(c1)CCCC2CN(C)CCc1cccs1 (centres unmarked) [Example 5, 1-((N-Methylamino)methyl-N-(2-(2-thienyl)ethyl))-6-methoxy tetralin methanesulfonate] | 0.8 |  |  |
| COc1ccc2c(c1)CCCC2CN(C)CCc1cccc(F)c1 (centres unmarked) [Example 6b, 1-((N-methylamino)methyl-N-(2-(m-fluorophenyl)ethyl))-6-methoxy tetralin hydrochloride] | 5 |  |  |
| COc1ccc2c(c1)CCCC2CN(C)CCc1ccsc1 (centres unmarked) [Example 6d, 1-((N-methylamino)methyl-N-(2-(3-thienyl)ethyl))-6-methoxy tetralin hydrochloride] | 1.5 |  |  |
| COc1ccc2c(c1)CCCC2CN(C)CCC1CCCC1 (centres unmarked) [Example 6f, 1-((N-methylamino)methyl-N-(2-(cyclopentyl)ethyl))-6-methoxy tetralin hydrochloride] |  |  | 6.5 |
| COc1ccc2c(c1)CCCC2CN(C)CCC1CCCS1 (centres unmarked) [Example 6h, 1-((N-methylamino)methyl-N-(2-(2-tetrahydrothienyl)ethyl)) 6-methoxy tetralin hydrochloride] | 3.5 | 430 |  |
| CN(CCc1cccs1)CC1CCCc2cc(O)ccc21 (centres unmarked) [Example 7, 1-((N-Methylamino)methyl-N-(2-(2-thienyl)ethyl))-6-hydroxy tetralin hydrochloride] | 1.6 |  |  |
| COc1ccc2c(c1)CCCC2CN(C)CCc1cccn1C (centres unmarked) [Example 12, 1-((N-Methylamino)methyl-N-(2-(N-methyl-2-pyrrolyl)-ethyl))-6-methoxy tetralin fumarate] | 5 |  |  |
| CN(CCc1cccs1)CC1CCCc2ccccc21 (centres unmarked) [Example 22, 1-((N-Methylamino)methyl-N-(2-(2-thienyl)ethyl)) tetralin hydrochloride] | 1.3 |  |  |
| CN(CCc1cccs1)CC1CCCc2c1ccc1c2OCO1 (centres unmarked) [Example 23, 1-((N-Methylamino)methyl-N-(2-(2-thienyl)ethyl))-5,6-methylenedioxy tetralin hydrochloride] | 1.7 |  |  |
| COc1cc2c(c(OC)c1)C(CN(C)CCc1cccs1)CCC2 (centres unmarked) [Example 26, 1-((N-Methylamino)methyl-N-(2-(2-thienyl)ethyl))-6,8-dimethoxy tetralin hydrochloride] | 0.6 |  |  |
| COc1ccc2c(c1)C(CN(C)CCc1cccs1)CCC2 (centres unmarked) [Example 27, 1-((N-Methylamino)methyl-N-(2-(2-thienyl)ethyl))-7-methoxy tetralin hydrochloride] | 2 |  |  |
| CN(CCc1cccs1)CC1CCCc2c1ccc1c2OCCO1 (centres unmarked) [Example 30, 1-((N-Methylamino)methyl-N-(2-(2-thienyl)ethyl))-5,6-ethylenedioxy tetralin hydrochloride] | 4 |  |  |
| Cc1cc(O)c(O)c2c1C(CN(C)CCc1cccc(F)c1)CCC2 (centres unmarked) [Example 34, 1-((N-Methylamino)methyl-N-(2-(m-fluorophenyl)ethyl))-5,6-dihydroxy-8-methyl tetralin hydrobromide] | 2.6 |  |  |
| COc1ccc(C)c2c1CCCC2CN(C)CCc1cccs1 (centres unmarked) [Example 36, 1-((N-Methylamino)methyl-N-(2-(2-thienyl)ethyl))-5-methoxy-8-methyl tetralin hydrochloride] | 6.9 | 95 |  |
| COc1ccc2c(c1)CCC2CN(C)CCc1cccs1 (centres unmarked) [Example 37, 1-((N-Methylamino)methyl-N-(2-(2-thienyl)ethyl))-5-methoxy indane hydrochloride] | 3.7 |  |  |
| CCN(CCc1cccs1)CC1CCCc2cc(OC)ccc21 (centres unmarked) [Example 41, 1-((N-Ethylamino)methyl-N-(2-(2-thienyl)ethyl))-6-methoxy tetralin hydrochloride] | 2.9 |  |  |
| CCN(CCc1cccc(F)c1)CC1CCCc2cc(OC)ccc21 (centres unmarked) [Example 42, 1-((N-Ethylamino)methyl-N-(2-(m-fluorophenyl)ethyl))-6-methoxy tetralin hydrochloride] | 6.6 |  |  |
| CCN(CCc1ccco1)CC1CCCc2cc(OC)ccc21 (centres unmarked) [Example 43, 1-((N-Ethylamino)methyl-N-(2-(2-furyl)ethyl))-6-methoxy tetralin hydrochloride] | 6 |  |  |
| CCN(CCc1ccsc1)CC1CCCc2cc(OC)ccc21 (centres unmarked) [Example 44, 1-((N-Ethylamino)methyl-N-(2-(3-thienyl)ethyl))-6-methoxy tetralin hydrochloride] | 5.6 |  |  |
| CN(CCc1cccs1)CC1CCCc2cc(Cl)ccc21 (centres unmarked) [Example 49, 1-((N-Methylamino)methyl-N-(2-(2-thienyl)ethyl))-6-chloro tetralin hydrochloride] | 10 |  |  |

Further lines, with some results ahead:

| Ki (alpha 2 receptor [1]; read-out: Ki alpha-2) [nM] | alpha-2 - Selectivity Ki alpha 1/Ki alpha-2 (alpha 2 receptor [2]) | SMILES | Ki (alpha 2 receptor [1]) [nM] |
| --- | --- | --- | --- |
| 18 |  | CCCN(CCc1cccs1)CC1CCCc2cc(OC)ccc21 (centres unmarked) [Example 58, 1-((N-Propylamino)methyl)-N-(2-(2-thienyl)ethyl))-6-methoxy tetralin hydrochloride] |  |
| 6 |  | COc1ccc2c(c1)CCCC2CN(C)CCc1cccc(N)c1 (centres unmarked) [Example 67, 1-((N-Methylamino)methyl-N-(2-(m-aminophenyl)ethyl))-6-methoxy tetralin dihydrochloride] |  |
| 6 |  | CN(CCc1cccc(N)c1)CC1CCCc2cc(O)ccc21 (centres unmarked) [Example 68, 1-((N-Methylamino)methyl-N-(2-(m-aminophenyl)ethyl))-6-hydroxy tetralin dihydrobromide] |  |
| 13 | 98 | CCOc1ccc2c(c1)CCCC2CN(C)CCc1cccc(N)c1 (centres unmarked) [Example 69, 1-((N-Methylamino)methyl-N-(2-(m-aminophenyl)ethyl))-6-ethoxy tetralin dihydrochloride] |  |
| 5 |  | CN(CCc1cccc(F)c1)CC1CCCc2ccccc21 (centres unmarked) [Example 70, 1-((N-Methylamino)methyl-N-(2-(m-fluorophenyl)ethyl))-tetralin hydrochloride] |  |
| 4 |  | CN(CCc1cccc(O)c1)CC1CCCc2cc(O)ccc21 (centres unmarked) [Example 82, 1-((N-Methylamino)methyl-N-(2-(m-hydroxyphenyl)ethyl))-6-hydroxy tetralin hydrochloride] |  |
| 8 |  | COc1ccc2c(c1)CCCC2CN(C)CCc1cccc(O)c1 (centres unmarked) [Example 83, 1-((N-Methylamino)methyl-N-(2-(m-hydroxyphenyl)ethyl))-6-methoxy tetralin hydrochloride] |  |
| 1.5 |  | CN(CCc1cccc(F)c1)CC1CCCc2c1ccc(O)c2O (centres unmarked) [Example 85, 1-((N-Methylamino)methyl-N-(2-(m-fluorophenyl)ethyl))-5,6-dihydroxy tetralin hydrochloride] |  |
| 3 |  | COc1ccc2c(c1OC)CCCC2CN(C)CCc1cccs1 (centres unmarked) [Example 86, 1-((N-Methylamino)methyl-N-(2-(2-thienyl)ethyl))-5,6-dimethoxy tetralin hydrochloride] |  |
| 1.6 |  | CN(CCc1cccs1)CC1CCCc2c1ccc(O)c2O (centres unmarked) [Example 87, 1-((N-Methylamino)methyl-N-(2-(2-thienyl)ethyl))-5,6-dihydroxy tetralin hydrochloride] |  |
| 2 |  | CN(CCc1ccccc1)CC1CCCc2ccccc21 (centres unmarked) [Example 88, 1-((N-Methylamino)methyl-N-(2-phenethyl)) tetralin hydrochloride] |  |
| 5.7 |  | CN(CCc1ccccc1)CC1CCCc2cc(N)ccc21 (centres unmarked) [Example 114, 1-((N-Methylaminomethyl-N-(2-phenylethyl))-6-aminotetralindihydrochloride] |  |
| 3 |  | CN(CCc1cccs1)CC1CCCc2c1ccc(O)c2I (centres unmarked) [Example 115, 1-((N-Methylamino)methyl-N-(2-(2-thienyl)ethyl))-5-iodo-6-hydroxy tetralin hydrochloride] |  |
| 8 |  | COc1cc2c(cc1C)C(CN(C)CCc1ccco1)CCC2 (centres unmarked) [Example 128, 1-((N-Methylamino)methyl-N-(2-(2-furyl)ethyl))-methoxy-7-methyl tetralin hydrochloride] |  |
| 4.8 |  | COc1cc2c(cc1F)C(CN(C)CCc1ccco1)CCC2 (centres unmarked) [Example 141, 1-((N-methylamino)methyl-N-(2-(2-furyl)ethyl))-6-methoxy-7-fluoro tetralin methanesulfonate] |  |
| 1.2 |  | c1csc(C2CCN(CC3CCCc4c3ccc3c4OCO3)C2)c1 (centres unmarked) [Example 144, 5,6-Methylenedioxy-1-(3-(2-thienyl)pyrrolidino-1-methyl) tetralin methanesulfonate] |  |
| 3.7 |  | CCN(CCc1cccs1)CC1CCCc2c1ccc1c2OCO1 (centres unmarked) [Example 164, 1-(N-Ethylamino)methyl-N-(2-(2-thienyl)ethyl))-5,6-methylenedioxy tetralin hydrochloride] |  |
| 3.5 |  | CCN(CCc1cccc(F)c1)CC1CCCc2c1ccc1c2OCO1 (centres unmarked) [Example 165, 1-((N-Ethylamino)methyl-N-(2-m-fluorophenethyl))-5,6-methylenedioxy tetralin hydrochloride] |  |
| 4.5 |  | CN(CCc1cccc(F)c1)CC1CCCc2c1ccc1c2OCO1 (centres unmarked) [Example 166, 1-((N-Methylamino)methyl-N-(2-m-fluorophenethyl))-5,6-methylenedioxy tetralin methanesulfonate] |  |
| 6.6 |  | CCN(CCc1cccs1)CC1CCCc2c1ccc1c2OCCO1 (centres unmarked) [Example 168, 1-((N-Ethylamino)methyl-N-(2-(2-thienyl)ethyl))-5,6-ethylenedioxy tetralin hydrochloride] |  |
| 0.6 |  | Fc1ccccc1C1CCN(CC2CCCc3c2ccc2c3OCO2)C1 (centres unmarked) [Example 176a, 5.6-Methylenedioxy-1-(3-(o-fluorophenyl)pyrrolidino-1-methyl) tetralin methanesulfonate] |  |
